Literature values as cited in US20240024159A1, “POSTERIOR CHAMBER PLACEMENT OF SUSTAINED RELEASE IMPLANT” (Allergan, Inc., priority 2020, published 2024).

Tested on: prostaglandin (PG) sensitive receptors

With `CCNC(=O)CCC/C=C\C[C@@H]1[C@@H](/C=C/[C@@H](O)CCc2ccccc2)[C@H](O)C[C@@H]1O` [bimatoprost] as the compound, how does the “interaction with prostaglandin (PG) sensitive receptors” value read?
Its value is “no meaningful interaction”.
